The numbers were not newly measured in US20110082127A1, “NEW INJECTABLE FORMULATIONS CONTAINING PROGESTERONE” (priority 2004, published 2011), which cites them from elsewhere.

The structures appear in SMILES notation.

The conditions of the series: stated by the known art.

Turning to `OC[C@H]1O[C@@H]2O[C@H]3[C@H](O)[C@@H](O)[C@@H](O[C@H]4[C@H](O)[C@@H](O)[C@@H](O[C@H]5[C@H](O)[C@@H](O)[C@@H](O[C@H]6[C@H](O)[C@@H](O)[C@@H](O[C@H]7[C@H](O)[C@@H](O)[C@@H](O[C@H]8[C@H](O)[C@@H](O)[C@@H](O[C@H]1[C@H](O)[C@H]2O)O[C@@H]8CO)O[C@@H]7CO)O[C@@H]6CO)O[C@@H]5CO)O[C@@H]4CO)O[C@@H]3CO` [unsubstituted β-cyclodextrin, β-cyclodextrin], the water solubility was 1.8 g/100 ml.
